What all share (assay type): cell-based
Assay [1] concerns RSV strain A2. Description: RSV HEp-2 EC50 (infectious cytopathic cell protection assay). The note with it: read-out: RSV HEp-2 EC50. In outline:
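HEp-2 cells mixed with titered RSV A2 at 50,000 cells/ml were added to plates holding 3-fold serial compound dilutions in DMSO, then incubated 4 days at 37° C. Cytoprotection was read as cell viability by CellTiter-Glo luminescence and converted to percent inhibition against 0% and 100% inhibition controls.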
On the technique in general: Protection from cytopathic effect is a common read-out in antiviral testing.

The subject of assay [2] is DENV2 replicon. The experiment in a line: DENV-2 Huh-7 Rep EC50 (replicon luminescence). The conditions noted are these: read-out: DENV-2 Huh-7 Rep EC50. In outline:
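Huh-7 cells carrying a DENV2 replicon, 5,000 cells/well, were incubated with dosed compounds for 48 h at 37° C. EnduRen live-cell substrate was added 1.5 h before luminescence reading. EC50 came from dose-response against DMSO-only wells.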
On the technique in general: A replicon is a self-replicating genome or part of one, used to study replication in cells.

In assay [3] the test system is HRV16. Description: HRV16 HELA EC50 (cytopathic effect in H1-HeLa cells). The gist of the method: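 H1-HeLa cells seeded one day before, given 3-fold serial compound dilutions in triplicate just prior to infection with pre-titrated virus. Incubated 96 h at 33 °C/5% CO2; protection from cytopathic effect read as viability by CellTiter-Glo luminescence, normalised to infected untreated (0%) and uninfected (100%) controls.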

The test system of assay [4] is RSV A2. Description: RSV NHBE EC50 (RSV A2 antiviral assay in normal human bronchial epithelial cells). The note with it: read-out: RSV NHBE EC50.
The mark [5] stands for this setting: human respiratory syncytial virus, 96 h, HEp-2 cells, RSV A2, 4 days.
The mark [6] stands for this setting: Dengue virus, DENV2, Huh-7, 48 h.
Where [7] appears, read: H1-HeLa cells, 96 h, 33° C.; read-out: HRV16 HELA EC50.
Setting [8] is: human respiratory syncytial virus, 96 h, NHBE cells, RSV A2, 4 days.
Where [9] appears, read: human respiratory syncytial virus, HEp-2, 96 h, HEp-2 cells, RSV A2, 4 days.
Where [10] appears, read: Dengue virus, DENV2, Huh-7, 48 h, Huh-7 replicon cells, 48 hours.
The mark [11] stands for this setting: 96 h, H1-HeLa cells, 33° C., read-out: HRV16 HELA EC50.
The mark [12] stands for this setting: human respiratory syncytial virus, NHBE, 96 h, NHBE cells, RSV A2, 4 days.

SMILES strings stand for the structures. Like-named read-outs stand apart in the source and are kept apart here.

Consider `CCC(CC)COC(=O)[C@H](CC)NP(=O)(N[C@@H](CC)C(=O)OCC(CC)CC)OC[C@@]1(C#N)O[C@@H](c2ccc3c(N)ncnn23)[C@H](O)[C@@H]1O` [Example 220], for which the EC50 in assay [1] (setting [5]) was 4.26 µM; in assay [2] (setting [6]), 29 µM; in assay [3] (setting [7]), 10.6 µM; in assay [4] (setting [8]), 0.34 µM.
Take `CC(C)OC(=O)[C@H](C)N[P@](=O)(OC[C@@]1(C#N)O[C@@H](c2ccc3c(N)ncnn23)[C@@H]2OC(=O)O[C@@H]21)Oc1ccccc1` [Example 236, isopropyl ((S)-(((3aS,4R,6S,6aS)-6-(4-aminopyrrolo[2,1-f][1,2,4]triazin-7-yl)-4-cyano-2-oxotetrahydrofuro[3,4-d][1,3]dioxol-4-yl)methoxy) (phenoxy)phosphoryl)-L-alaninate]: the EC50 stood at 0.189 µM in assay [1] (setting [9]), 17.9 µM in assay [2] (setting [10]), 0.741 µM in assay [3] (setting [11]) and 0.949 µM in assay [4] (setting [12]).
In the same order, the values of `C[C@@H](NP(=O)(OC[C@@]1(C#N)O[C@@H](c2ccc3c(N)ncnn23)[C@H](O)[C@@H]1O)Oc1ccccc1)C(=O)O[C@@H]1CCN(C(=O)OC(C)(C)C)C1` (stereo partly drawn) [Example 140, (3R)-tert-butyl 3-(((2R)-2-(((((2R,3S,4R,5S)-5-(4-aminopyrrolo[2,1-f][1,2,4]triazin-7-yl)-2-cyano-3,4-dihydroxytetrahydrofuran-2-yl)methoxy)(phenoxy)phosphoryl)amino)propanoyl)oxy)pyrrolidine-1-carboxylate] are 8.89 µM, more than 50 µM, 23.3 µM and more than 5 µM.
The matching figures for `CC(=O)N1CCC(OC(=O)C(C)NP(=O)(OC[C@@]2(C#N)O[C@@H](c3ccc4c(N)ncnn34)[C@H](O)[C@@H]2O)Oc2ccccc2)CC1` (stereo partly drawn) [Example 185, 1-acetylpiperidin-4-yl ((((2R,3S,4R,5S)-5-(4-aminopyrrolo[2,1-f][1,2,4]triazin-7-yl)-2-cyano3,4-dihydroxytetrahydrofuran-2-yl)methoxy)(phenoxy)phosphoryl)alaninate]: 7.94 µM, more than 100 µM, more than 80.2 µM and more than 5 µM.
Take `C[C@H](NP(=O)(OC[C@@]1(C#N)O[C@@H](c2ccc3c(N)ncnn23)[C@H](O)[C@@H]1O)Oc1ccccc1)C(=O)O[C@@H](C)C(N)=O` (stereo partly shown) [Example 160]: the half-maximal effective concentration (EC50) is 7.3 µM in assay [1] (HEp-2 cells, RSV A2, 4 days); more than 50 µM in assay [2] (Huh-7 replicon cells, 48 hours); 29.1 µM in assay [3] (setting [7]); more than 5 µM in assay [4] (NHBE cells, RSV A2, 4 days).
In the case of `CCOC(=O)[C@H](C)NP(=O)(N[C@@H](C)C(=O)OCC)OC[C@@]1(C#N)O[C@@H](c2ccc3c(N)ncnn23)[C@H](O)[C@@H]1O` [Example 35, ((2R,3S,4R,5S)-5-(4-aminopyrrolo[2,1-f][1,2,4]triazin-7-yl)-2-cyano-3,4-dihydroxytetrahydrofuran-2-yl)methyl bis-ethyl L-alaninate phosphate], the EC50 in assay [1] (setting [5]) was 4.07 µM; in assay [2] (setting [6]) it was more than 50 µM; in assay [3] (setting [7]) it was 29.6 µM; in assay [4] (setting [8]) it was 1.31 µM.
As to `CC(C)OC(=O)[C@H](C)N[P@](=O)(OC[C@@]1(C#N)O[C@@H](c2ccc3c(N)ncnn23)[C@H](O)[C@@H]1O)Oc1ccccc1` (single isomer, unassigned) [Example 1], the EC50 in assay [1] (setting [9]) was 0.342 µM; in assay [2] (setting [10]), more than 50 µM; in assay [3] (setting [11]), 0.966 µM; in assay [4] (setting [12]), 0.879 µM.
In the case of `CC(C)OC(=O)[C@H](C)N[P@@](=O)(OC[C@@]1(C#N)O[C@@H](c2ccc3c(N)ncnn23)[C@H](O)[C@@H]1O)Oc1ccccc1` (single isomer, unassigned) [Example 78], the EC50 was 2.04 µM in assay [1] (setting [9]), more than 50 µM in assay [2] (setting [10]), 2.26 µM in assay [3] (setting [11]) and 1.77 µM in assay [4] (setting [12]).
In the same order, the values of `CC(C)C(=O)Nc1ncnn2c([C@@H]3O[C@](C#N)(CO[P@@](=O)(N[C@@H](C)C(=O)OC4CCCCC4)Oc4ccccc4)[C@@H](O)[C@H]3O)ccc12` [Example 235, cyclohexyl ((S)-(((2R,3S,4R,5S)-2-cyano-3,4-dihydroxy-5-(4-isobutyramidopyrrolo[2,1-f][1,2,4]triazin-7-yl)tetrahydrofuran-2-yl)methoxy)(phenoxy)phosphoryl)-L-alaninate] are 0.114 µM, 3.96 µM, 1.1 µM and 0.51 µM.
The matching figures for `N#C[C@]1(COP(=O)(NC2(C(=O)OC3CCCCC3)CCC2)Oc2ccccc2)O[C@@H](c2ccc3c(N)ncnn23)[C@H](O)[C@@H]1O` (stereo partly drawn) [Example 107, cyclohexyl 1-(((((2R,3S,4R,5S)-5-(4-aminopyrrolo[2,1-f][1,2,4]triazin-7-yl)-2-cyano-3,4-dihydroxytetrahydrofuran-2-yl)methoxy)(phenoxy)phosphoryl)amino)cyclobutanecarboxylate]: more than 14.2 µM, more than 50 µM, more than 35.7 µM and more than 2.89 µM.
As for `CCC(CC)COC(=O)[C@H](C)OP(=O)(OC[C@@]1(C#N)O[C@@H](c2ccc3c(N)ncnn23)[C@H](O)[C@@H]1O)Oc1ccccc1` (stereo partly drawn) [Example 244, 2-ethylbutyl (2S)-2-(((((2R,3S,4R,5S)-5-(4-aminopyrrolo [2,1-f][1,2,4]triazin-7-yl)-2-cyano-3,4-dihydroxytetrahydrofuran-2-yl)methoxy)(phenoxy)phosphoryl)oxy)propanoate], the EC50 in assay [1] (human respiratory syncytial virus, HEp-2, 96 h) is 4.95 µM; in assay [2] (setting [6]) it was 36.7 µM; in assay [3] (96 h, read-out: HRV16 HELA EC50) it was 33.6 µM; in assay [4] (human respiratory syncytial virus, NHBE, 96 h), more than 5 µM.
For `C[C@H](NP(=O)(OC[C@@]1(C#N)O[C@@H](c2ccc3c(N)ncnn23)[C@H](O)[C@@H]1O)Oc1ccccc1)C(=O)O[C@H]1CC[C@H](C(C)(C)C)CC1` (stereo partly drawn) [Example 21, trans-4-(tert-butyl)cyclohexyl ((((2R,3S,4R,5S)-5-(4-aminopyrrolo[2,1-f][1,2,4]triazin-7-yl)-2-cyano-3,4-dihydroxytetrahydrofuran-2-yl)methoxy)(phenoxy)phosphoryl)-L-alaninate], the concentration for a half-maximal effect (EC50) amounted to 0.079 µM in assay [1] (setting [9]), 11 µM in assay [2] (setting [10]), 0.23 µM in assay [3] (setting [11]) and 0.027 µM in assay [4] (setting [12]).
On to `CCCCCCCCCCCCCCCCCCOCCOP(=O)(O)OC[C@@]1(C#N)O[C@@H](c2ccc3c(N)ncnn23)[C@H](O)[C@@H]1O` [Example 148, ((2R,3S,4R,5S)-5-(4-aminopyrrolo[2,1-f][1,2,4]triazin-7-yl)-2-cyano-3,4-dihydroxytetrahydrofuran-2-yl)methyl (2-(octadecyloxy)ethyl) hydrogen phosphate], for which the EC50 in assay [1] (setting [5]) was 2.67 µM; in assay [2] (setting [6]), more than 50 µM; in assay [3] (setting [7]) it was 36.9 µM; in assay [4] (setting [8]) it was 0.32 µM.
Consider `CC(C)OC(=O)[C@H](C)NP(=O)(N[C@@H](C)C(=O)OC(C)C)OC[C@@]1(C#N)O[C@@H](c2ccc3c(N)ncnn23)[C@H](O)[C@@H]1O` [Example 34], for which the concentration giving a half-maximal response (EC50) in assay [1] (setting [5]) was 14 µM; in assay [2] (setting [6]) it was more than 50 µM; in assay [3] (setting [7]), more than 50 µM; in assay [4] (setting [8]) it was 2.84 µM.
Turning to `C[C@H](NP(=O)(OC[C@@]1(C#N)O[C@@H](c2ccc3c(N)ncnn23)[C@H](O)[C@@H]1O)Oc1ccccc1)C(=O)OCC1COC1` (stereo partly drawn) [Example 49, oxetan-3-ylmethyl ((((2R,3S,4R,5S)-5-(4-aminopyrrolo[2,1-f][1,2,4]triazin-7-yl)-2-cyano-3,4-dihydroxytetrahydrofuran-2-yl)methoxy)(phenoxy)phosphoryl)-L-alaninate], the half-maximal effective concentration (EC50) in assay [1] (setting [9]) is 1.08 µM; in assay [2] (setting [10]) it was more than 50 µM; in assay [3] (setting [11]) it was 8.72 µM; in assay [4] (setting [12]), 2.43 µM.
With `C[C@H](NP(=O)(N[C@@H](C)C(=O)OCC1CC1)OC[C@@]1(C#N)O[C@@H](c2ccc3c(N)ncnn23)[C@H](O)[C@@H]1O)C(=O)OCC1CC1` [Example 214, ((2R,3S,4R,5S)-5-(4-aminopyrrolo[2,1-f][1,2,4]triazin-7-yl)-2-cyano-3,4-dihydroxytetrahydrofuran-2-yl)methyl bis-cyclopropylmethyl L-alaninate phosphate], the EC50 in assay [1] (setting [5]) was 2.94 µM; in assay [2] (setting [6]), more than 50 µM; in assay [3] (setting [7]), 25.8 µM; in assay [4] (setting [8]), 0.551 µM.

As usually defined, the EC50 is the concentration needed to bring the measured effect to its halfway point.

The record behind these values is patent publication US20230295201A1 (Gilead Sciences, Inc., priority 2020, published 2023).
